The target in the experiment is T1, recombinant human renin (Homo sapiens, UniProt P00797).
T1 sequence (P00797 67-406): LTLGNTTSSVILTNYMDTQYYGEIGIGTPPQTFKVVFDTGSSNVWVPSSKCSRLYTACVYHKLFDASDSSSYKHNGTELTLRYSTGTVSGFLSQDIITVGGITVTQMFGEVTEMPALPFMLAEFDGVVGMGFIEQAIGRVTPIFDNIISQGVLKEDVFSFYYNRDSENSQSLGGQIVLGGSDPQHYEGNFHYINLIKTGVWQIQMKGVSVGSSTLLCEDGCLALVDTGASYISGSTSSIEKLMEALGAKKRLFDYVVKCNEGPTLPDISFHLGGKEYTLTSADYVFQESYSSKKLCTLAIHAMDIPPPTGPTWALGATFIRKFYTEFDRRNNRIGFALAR
Nature of the experiment: Primary renin inhibition assay: IC50 in buffer, 384 well MTP (AngI quantified by EIA).

Each structure is given as a SMILES string.

As usually defined, the IC50 is the concentration that gives 50% inhibition.

Method: Enzyme Immuno Assay (EIA) to Estimate AngI Accumulation and Renin Inhibition
The mixture was incubated overnight at 4° C., then dialyzed against 2 liters of 0.9% NaCl, twice for 4 h at rt, followed by dialysis against 2 liters of PBS 1× overnight at rt. […] The conjugate can be stored in polypropylene tubes in 0.05% sodium azide at 4° C. for at least 12 months.
The AngI (1-10)/BSA coated MTP were washed 3 times with wash buffer (PBS 1×, 0.01% Tween 20) and filled with 75 μl of primary antibody solution (anti-AngI antiserum, pre-diluted 1:10 in horse serum), diluted to a final concentration of 1:100'000 in assay buffer (PBS 1×, 1 mM EDTA, 0.1% BSA, pH 7.4). 5 μl of the renin reaction (or standards in assay buffer) (see below) were added to the primary antibody solution and the plates were incubated overnight at 4° C. […]
In the second step, the accumulated AngI is measured by an immunological assay (enzyme immuno assay, EIA). […]
Test compounds were dissolved and diluted in 100% DMSO and 2.5 μl added to the premix, then incubated at 37° C. for 3 h. At the end of the incubation period, 5 μl of the renin reaction (or standards in assay buffer) were transferred into EIA assays (as described above) and AngI produced by renin was quantified.

As to `COCCCc1cc(CN(C(=O)[C@H]2CNCC[C@]2(O)c2ccc(OCCOc3c(Cl)cc(C)cc3Cl)nc2)C2CC2)c(Cl)c[n+]1[O-]` [Example 7, (3′S,4′R)-6-[2-(2,6-Dichloro-4-methyl-phenoxy)-ethoxy]-4′-hydroxy-1′,2′,3′,4′,5′,6′-hexahydro-[3,4′]bipyridinyl-3′-carboxylic acid [5-chloro-2-(3-methoxy-propyl)-1-oxy-pyridin-4-ylmethyl]-cyclopropyl-amide], the IC50 came to 0.23 nM.
